Laboratory results as given in PMC4203401 (Journal of Medicinal Chemistry, 2014).

Tests used:
[1] = target: HIV-1 RT-associated RNase H activity (Human immunodeficiency virus type 1 group M subtype B, UniProt P04585); assay: HIV-1 RT RNase H inhibition; format: biochemical
[2] = target: polymerase function of RT (Human immunodeficiency virus type 1 group M subtype B, UniProt P04585); assay: HIV-1 RT polymerase inhibition; format: biochemical
HTLV-IIIB = conditions: read-out: EC50, originally reported; HTLV-IIIB-based infection assay; ref 19b; cited from earlier work
HIV-1(IIIB) = assay: HIV-1 replication inhibition in HeLa-CD4-LTR-β-gal cells; format: cell-based
[3] = target: HIV-1 IN (rIN), strand transfer (Human immunodeficiency virus type 1 group M subtype B, UniProt P04585); assay: HIV-1 IN gel-based assay, strand transfer; format: biochemical; conditions: IC50 for strand transfer

| Structure (SMILES) | Ability to inhibit RNase H [1] | Inhibition of polymerase function of RT (inactive up to) [2] | IC50 [3] | also measured |
| --- | --- | --- | --- | --- |
| Cc1nnc(C(=O)NC(C)(C)c2nc(C(=O)NCc3ccc(F)cc3)c(O)c(=O)n2C)o1 [Compound 2, raltegravir] | inactive | – | – | – |
| C[C@@H]1CCO[C@H]2Cn3cc(C(=O)NCc4ccc(F)cc4F)c(=O)c(O)c3C(=O)N12 [Compound 3, dolutegravir] | inactive | – | – | – |
| O=C(O)/C(O)=C/C(=O)c1cn(Cc2ccc(F)cc2)c2cc(N3CCCC3)ccc2c1=O [Compound 7b, reference compound] | – | > 40 µM | – | EC50 (HTLV-IIIB): 0.17 µM |
| CCOC(=O)/C(O)=C/C(=O)c1cn(Cc2ccc(F)cc2)c2cc(N(C)C)ccc2c1=O [Compound 11g, 4-[1-[(4-Fluorophenyl)methyl]-7-(dimethylamino)-4-(1H)-quinolinon-3-yl]-2-hydroxy-4-oxo-2-butenoic Acid Ethyl Ester] | – | – | – | SI, selectivity index (CC50/EC50) (HIV-1(IIIB); CC50/EC50 in HeLa cells): 20 |
| O=C(O)/C(O)=C/C(=O)c1cn(Cc2ccc(F)cc2)c2cc(N3CCOCC3)ccc2c1=O [Compound 12f, 4-[1-[(4-Fluorophenyl)methyl]-7-(morpholin-4-yl)-4-(1H)-quinolinon-3-yl]-2-hydroxy-4-oxo-2-butenoic Acid] | – | > 40 µM | < 0.1 µM | – |
| O=C(O)/C(O)=C/C(=O)c1cn(Cc2ccc(F)cc2)c2cc(N3CCN(CCCCl)CC3)ccc2c1=O [Compound 12i, 4-[1-[(4-Fluorophenyl)methyl]-7-[N-(3-chloroprop-1-yl)piperazin-1-yl]-4-(1H)-quinolinon-3-yl]-2-hydroxy-4-oxo-2-butenoic Acid] | – | > 40 µM | < 0.1 µM | Block of HIV-1 replication (HIV-1(IIIB); HeLa-CD4-LTR-β-gal cells, HIV-1(IIIB)): unable to block replication |
